Source: patent US20060014644A1, “Phenylsulfonyl ureas, process for their preparation and their use as herbicides and plant growth regulators” (Hoechst Schering AgrEvo GmbH, priority 1999, published 2006)

Tests used:
[1] = tested on: harmful plants such as Sinapis alba, Chrysanthemum segetum, Avena sativa, Stellaria media, Echinochloa crus-galli, Lolium multiflorum, Setaria spp., Abutilon …; assay: Pre-emergence effect on weeds (greenhouse pot test, visual scoring); type: in vivo, monocotyledonous and dicotyledonous weed plants; conditions: application rate of 0.3 kg and less of active substance per hectar, scored visually after 3 to 4 weeks by comparison with untreated controls
From the text: 1. Pre-Emergence Effect on Weeds
Seeds or rhizome pieces of monocotyledonous and dicotyledonous weed plants were placed in sandy loam soil in cardboard pots and covered with soil. The compounds according to the invention which were formulated in the form of wettable powders or emulsion concentrates were then applied to the surface of the soil cover in the form of aqueous suspensions or emulsions at an application rate of 600 to 800 l of water/ha (converted), in various dosages.
After the treatment, the pots were placed in a greenhouse and kept under good growth conditions for the weeds. After the test plants had emerged, the damage to the plants or the negative effect on the emergence was scored visually after a test period of 3 to 4 weeks by comparison with untreated controls. As shown by the test results, compounds according to the invention have good herbicidal pre-emergence activity against a broad spectrum of weed grasses and broad-leafed weeds.

[2] = tested on: harmful plants such as Sinapis alba, Echinochloa crus-galli, Lolium multiflorum, Chrysanthemum segetum, Setaria spp., Abutilon theophrasti, Amaranthus …; assay: Post-emergence effect on weeds (greenhouse pot test, visual scoring); type: in vivo, monocotyledonous and dicotyledonous weeds; conditions: three-leaf stage, application rate of 0.3 kg and less of active substance per hectare, scored visually after about 3 to 4 weeks by comparison with untreated controls
Method: 2. Post-Emergence Effect on Weeds
Seeds or rhizome pieces of monocotyledonous and dicotyledonous weeds were placed in sandy loam soil in plastic pots, covered with soil and grown in a greenhouse under good growth conditions. Three weeks after sowing, the test plants were treated at the three-leaf stage. The compounds according to the invention which were formulated as wettable powders or emulsion concentrates were sprayed, at various dosages, onto the green parts of the plants at an application rate of 600 to 800 l of water/ha (converted). After the test plants had remained in the greenhouse for about 3 to 4 weeks under ideal growth conditions, the effect of the preparations was scored visually by comparison with untreated controls. The agents according to the invention also have good herbicidal activity post-emergence against a broad spectrum of economically important Weed grasses and broad-loafed weeds.

CCC(C)Nc1cccc(S(=O)(=O)NC(=O)Nc2nc(C)nc(OC)n2)c1C(=O)OC (stereo not shown) [Example 1-267]
herbicidal activity against harmful plants, pre-emergence [1]: very good herbicidal activity
herbicidal activity against harmful plants, post-emergence [2]: very good herbicidal activity

COC(=O)c1c(N)cccc1S(=O)(=O)NC(=O)Nc1nc(C)cc(OC)n1 [Example 1-17]
herbicidal activity against harmful plants, pre-emergence [1]: very good herbicidal activity
herbicidal activity against harmful plants, post-emergence [2]: very good herbicidal activity

CCC(C)Nc1cccc(S(=O)(=O)NC(=O)Nc2nc(OC)nc(OC)n2)c1C(=O)OC (stereo not shown) [Example 1-271]
herbicidal activity against harmful plants, pre-emergence [1]: very good herbicidal activity
herbicidal activity against harmful plants, post-emergence [2]: very good herbicidal activity

COC(=O)c1c(N)cccc1S(=O)(=O)[N-]C(=O)Nc1nc(OC)nc(OC)n1.[Na+] [Example 1-26]
herbicidal activity against harmful plants, pre-emergence [1]: very good herbicidal activity
herbicidal activity against harmful plants, post-emergence [2]: very good herbicidal activity

COC(=O)c1c(NC(C)C)cccc1S(=O)(=O)[N-]C(=O)Nc1nc(OC)cc(OC)n1.[Na+] [Example 1-154]
herbicidal activity against harmful plants, pre-emergence [1]: very good herbicidal activity
herbicidal activity against harmful plants, post-emergence [2]: very good herbicidal activity

COC(=O)c1c(NC(C)C)cccc1S(=O)(=O)NC(=O)Nc1nc(C)nc(OC)n1 [Example 1-155]
herbicidal activity against harmful plants, pre-emergence [1]: very good herbicidal activity
herbicidal activity against harmful plants, post-emergence [2]: very good herbicidal activity

COC(=O)c1c(N)cccc1S(=O)(=O)NC(=O)Nc1nc(OC)nc(OC)n1 [Example 1-25]
herbicidal activity against harmful plants, pre-emergence [1]: very good herbicidal activity
herbicidal activity against harmful plants, post-emergence [2]: very good herbicidal activity

COC(=O)c1c(NC(C)C)cccc1S(=O)(=O)NC(=O)Nc1nc(OC)nc(OC)n1 [Example 1-159]
herbicidal activity against harmful plants, pre-emergence [1]: very good herbicidal activity
herbicidal activity against harmful plants, post-emergence [2]: very good herbicidal activity

CCOC(=O)c1c(N)cccc1S(=O)(=O)NC(=O)Nc1nc(OC)cc(OC)n1 [Example 1-45]
herbicidal activity against harmful plants, pre-emergence [1]: very good herbicidal activity
herbicidal activity against harmful plants, post-emergence [2]: very good herbicidal activity

CCOC(=O)c1c(N)cccc1S(=O)(=O)NC(=O)Nc1nc(C)nc(OC)n1 [Example 1-47]
herbicidal activity against harmful plants, pre-emergence [1]: very good herbicidal activity
herbicidal activity against harmful plants, post-emergence [2]: very good herbicidal activity

COC(=O)c1c(N)cccc1S(=O)(=O)NC(=O)Nc1nc(OC(F)F)cc(OC(F)F)n1 [Example 1-41]
herbicidal activity against harmful plants, pre-emergence [1]: very good herbicidal activity
herbicidal activity against harmful plants, post-emergence [2]: very good herbicidal activity

COC(=O)c1c(NC2CC2)cccc1S(=O)(=O)NC(=O)Nc1nc(C)nc(OC)n1 [Example 1-355]
herbicidal activity against harmful plants, pre-emergence [1]: very good herbicidal activity
herbicidal activity against harmful plants, post-emergence [2]: very good herbicidal activity

COC(=O)c1c(NC(C)C)cccc1S(=O)(=O)NC(=O)Nc1nc(OC)cc(OC)n1 [Example 1-153]
herbicidal activity against harmful plants, pre-emergence [1]: very good herbicidal activity
herbicidal activity against harmful plants, post-emergence [2]: very good herbicidal activity

COC(=O)c1c(N)cccc1S(=O)(=O)[N-]C(=O)Nc1nc(C)nc(OC)n1.[Na+] [Example 1-16]
herbicidal activity against harmful plants, pre-emergence [1]: very good herbicidal activity
herbicidal activity against harmful plants, post-emergence [2]: very good herbicidal activity

COC(=O)c1c(NCCCC(F)(F)F)cccc1S(=O)(=O)NC(=O)Nc1nc(OC)cc(OC)n1 [Example 1-241]
herbicidal activity against harmful plants, pre-emergence [1]: very good herbicidal activity
herbicidal activity against harmful plants, post-emergence [2]: very good herbicidal activity

CNc1cccc(S(=O)(=O)NC(=O)Nc2nc(OC)cc(OC)n2)c1C(=O)OC [Example 1-105]
herbicidal activity against harmful plants, pre-emergence [1]: very good herbicidal activity
herbicidal activity against harmful plants, post-emergence [2]: very good herbicidal activity

CCOC(=O)c1c(N)cccc1S(=O)(=O)NC(=O)Nc1nc(Cl)cc(OC)n1 [Example 1-55]
herbicidal activity against harmful plants, pre-emergence [1]: very good herbicidal activity
herbicidal activity against harmful plants, post-emergence [2]: very good herbicidal activity

CCOC(=O)c1c(NCC(C)C)cccc1S(=O)(=O)NC(=O)Nc1nc(Cl)cc(OC)n1 [Example 1-189]
herbicidal activity against harmful plants, pre-emergence [1]: very good herbicidal activity
herbicidal activity against harmful plants, post-emergence [2]: very good herbicidal activity

CCNc1cccc(S(=O)(=O)NC(=O)Nc2nc(OC)cc(OC)n2)c1C(=O)OC [Example 1-129]
herbicidal activity against harmful plants, pre-emergence [1]: very good herbicidal activity
herbicidal activity against harmful plants, post-emergence [2]: very good herbicidal activity

COC(=O)c1c(NCc2ccccc2)cccc1S(=O)(=O)NC(=O)Nc1nc(OC)cc(OC)n1 [Example 1-381]
herbicidal activity against harmful plants, pre-emergence [1]: very good herbicidal activity
herbicidal activity against harmful plants, post-emergence [2]: very good herbicidal activity

COC(=O)c1c(NCCCC(F)(F)F)cccc1S(=O)(=O)NC(=O)Nc1nc(OC)nc(OC)n1 [Example 1-247]
herbicidal activity against harmful plants, pre-emergence [1]: very good herbicidal activity
herbicidal activity against harmful plants, post-emergence [2]: very good herbicidal activity

COC(=O)c1c(NCc2ccccc2)cccc1S(=O)(=O)NC(=O)Nc1nc(C)nc(OC)n1 [Example 1-383]
herbicidal activity against harmful plants, pre-emergence [1]: very good herbicidal activity
herbicidal activity against harmful plants, post-emergence [2]: very good herbicidal activity

CCNc1cccc(S(=O)(=O)NC(=O)Nc2nc(C)nc(OC)n2)c1C(=O)OC [Example 1-131]
herbicidal activity against harmful plants, pre-emergence [1]: very good herbicidal activity
herbicidal activity against harmful plants, post-emergence [2]: very good herbicidal activity

COC(=O)c1c(N)cccc1S(=O)(=O)NC(=O)Nc1nc(Cl)cc(OC)n1 [Example 1-23]
herbicidal activity against harmful plants, pre-emergence [1]: very good herbicidal activity
herbicidal activity against harmful plants, post-emergence [2]: very good herbicidal activity

COC(=O)c1c(N(CC(C)C)CC(C)C)cccc1S(=O)(=O)NC(=O)Nc1nc(OC)cc(OC)n1 [Example 1-425]
herbicidal activity against harmful plants, pre-emergence [1]: very good herbicidal activity
herbicidal activity against harmful plants, post-emergence [2]: very good herbicidal activity

COC(=O)c1c(N(CC(C)C)CC(C)C)cccc1S(=O)(=O)[N-]C(=O)Nc1nc(OC)cc(OC)n1.[Na+] [Example 1-426]
herbicidal activity against harmful plants, pre-emergence [1]: very good herbicidal activity
herbicidal activity against harmful plants, post-emergence [2]: very good herbicidal activity

COC(=O)c1c(NCC(C)C)cccc1S(=O)(=O)NC(=O)Nc1nc(OC)cc(OC)n1 [Example 1-177]
herbicidal activity against harmful plants, pre-emergence [1]: very good herbicidal activity
herbicidal activity against harmful plants, post-emergence [2]: very good herbicidal activity

COc1nc(NC(=O)NS(=O)(=O)c2cccc(N)c2C(=O)O)nc(OC)n1 [Example 1-9]
herbicidal activity against harmful plants, pre-emergence [1]: very good herbicidal activity
herbicidal activity against harmful plants, post-emergence [2]: very good herbicidal activity

COC(=O)c1c(N(C)C)cccc1S(=O)(=O)NC(=O)Nc1nc(OC)cc(OC)n1 [Example 1-401]
herbicidal activity against harmful plants, pre-emergence [1]: very good herbicidal activity
herbicidal activity against harmful plants, post-emergence [2]: very good herbicidal activity

CCC(C)Nc1cccc(S(=O)(=O)NC(=O)Nc2nc(OC)cc(OC)n2)c1C(=O)OC (stereo not shown) [Example 1-265]
herbicidal activity against harmful plants, pre-emergence [1]: very good herbicidal activity
herbicidal activity against harmful plants, post-emergence [2]: very good herbicidal activity

COC(=O)c1c(N)cccc1S(=O)(=O)NC(=O)Nc1nc(C)nc(OC)n1 [Example 1-15]
herbicidal activity against harmful plants, pre-emergence [1]: very good herbicidal activity
herbicidal activity against harmful plants, post-emergence [2]: very good herbicidal activity

COC(=O)c1c(NC2CC2)cccc1S(=O)(=O)NC(=O)Nc1nc(OC)nc(OC)n1 [Example 1-359]
herbicidal activity against harmful plants, pre-emergence [1]: very good herbicidal activity
herbicidal activity against harmful plants, post-emergence [2]: very good herbicidal activity

COC(=O)c1c(NCc2ccccc2)cccc1S(=O)(=O)NC(=O)Nc1nc(OC)nc(OC)n1 [Example 1-387]
herbicidal activity against harmful plants, pre-emergence [1]: very good herbicidal activity
herbicidal activity against harmful plants, post-emergence [2]: very good herbicidal activity

COC(=O)c1c(NCC(C)C)cccc1S(=O)(=O)NC(=O)Nc1nc(C)nc(OC)n1 [Example 1-179]
herbicidal activity against harmful plants, pre-emergence [1]: very good herbicidal activity
herbicidal activity against harmful plants, post-emergence [2]: very good herbicidal activity

COC(=O)c1c(N)cccc1S(=O)(=O)NC(=O)Nc1nc(OC)cc(OC)n1 [Example 1-11]
herbicidal activity against harmful plants, pre-emergence [1]: very good herbicidal activity
herbicidal activity against harmful plants, post-emergence [2]: very good herbicidal activity
